Test results from ChEMBL document CHEMBL3046026, “Evaluation of the curative and protectant activity of fungicides and fungicide-adjuvant mixtures on Phomopsis cane and leaf spot of grape: A controlled environment study” (2007).
Active and inactive are the calls of the source. The calls are words filed in the database; no cut-off is given here.

Assays:
[1] = tested on: Diaporthe ampelina; test: Antifungal activity against Diaporthe ampelina infected grape plant assessed as decrease in lesions on leaf at 0.12 kg a.i./ha incubated for 24 hr prior to treatment with 20 hr wetness period followed by 4 hr drying period measured after 4 weeks relative to control in presence of regulaid; assay type: functional, organism-based
[2] = tested on: Diaporthe ampelina; test: Antifungal activity against Diaporthe ampelina infected grape plant assessed as disease severity at internodes at 0.12 kg a.i./ha treated 3 to 6 hr prior to inoculation followed by 24 hr wetness period measured after 4 weeks in presence of regulaid (reference value: 2.9%); assay type: functional
[3] = tested on: Diaporthe ampelina; test: Antifungal activity against Diaporthe ampelina infected grape plant assessed as disease severity at internodes at 0.5 kg/ha incubated for 24 hr prior to treatment with 20 hr wetness period followed by 4 hr drying period measured after 4 weeks in presence of regulaid (reference value: 3.2%); assay type: functional
[4] = tested on: Diaporthe ampelina; test: Antifungal activity against Diaporthe ampelina infected grape plant assessed as decrease in lesions on leaf at 0.12 kg a.i./ha incubated for 48 hr prior to treatment with 24 hr wetness period followed by 24 hr of drying period measured after 4 weeks relative to control in presence of regulaid; assay type: functional, organism-based
[5] = tested on: Diaporthe ampelina; test: Antifungal activity against Diaporthe ampelina infected grape plant assessed as disease severity at internodes at 0.12 kg a.i./ha incubated for 24 hr prior to treatment with 20 hr wetness period followed by 4 hr drying period measured after 4 weeks in presence of regulaid (reference value: 4.7%); assay type: functional
[6] = tested on: Diaporthe ampelina; test: Antifungal activity against Diaporthe ampelina infected grape plant assessed as re-isolation of mycelium from infected vines at 0.12 kg a.i./ha treated for weeks in presence of regulaid followed by inoculation on medium measured after 72 hr (reference value: 62.5%); assay type: functional
[7] = tested on: Diaporthe ampelina; test: Antifungal activity against Diaporthe ampelina infected grape plant assessed as disease severity at internodes at 0.12 kg a.i./ha incubated for 20 hr prior to treatment with 16 hr wetness period and 4 hr drying time measured after 4 weeks in presence of regulaid (reference value: 7.3%); assay type: functional
[8] = tested on: Diaporthe ampelina; test: Antifungal activity against Diaporthe ampelina infected grape plant assessed as decrease in lesions on leaf at 0.12 kg a.i./ha incubated for 20 hr prior to treatment with 16 hr wetness period and 4 hr drying time measured after 4 weeks relative to control in presence of regulaid; assay type: functional, organism-based
[9] = tested on: Diaporthe ampelina; test: Antifungal activity against Diaporthe ampelina infected grape plant assessed as disease severity at internodes at 0.12 kg a.i./ha treated 3 to 6 hr prior to inoculation followed by 24 hr wetness period measured after 4 weeks (reference value: 2.6%); assay type: functional
[10] = tested on: Diaporthe ampelina; test: Antifungal activity against Diaporthe ampelina infected grape plant assessed as decrease in lesions on leaf at 0.5 kg/ha incubated for 24 hr prior to treatment with 20 hr wetness period followed by 4 hr drying period measured after 4 weeks relative to control in presence of regulaid; assay type: functional, organism-based
[11] = tested on: Diaporthe ampelina; test: Antifungal activity against Diaporthe ampelina infected grape plant assessed as decrease in lesions on leaf at 0.12 kg a.i./ha treated 3 to 6 hr prior to inoculation followed by 24 hr wetness period measured after 4 weeks relative to control in presence of regulaid; assay type: functional, organism-based
[12] = tested on: Diaporthe ampelina; test: (§1) Antifungal activity against Diaporthe ampelina infected grape plant assessed as disease severity at internodes at 0.12 kg a.i./ha incubated for 48 hr prior to treatment with 24 hr wetness period followed by 24 hr of drying period measured after 4 weeks in presence of regulaid (reference value: 12.2%); assay type: functional
[13] = tested on: Diaporthe ampelina; test: Antifungal activity against Diaporthe ampelina infected grape plant assessed as decrease in lesions on leaf at 0.12 kg a.i./ha treated 3 to 6 hr prior to inoculation followed by 24 hr wetness period measured after 4 weeks relative to control; assay type: functional, organism-based
[14] = tested on: Diaporthe ampelina; test: Antifungal activity against Diaporthe ampelina infected grape plant assessed as decrease in lesions on leaf at 2.6 kg/ha incubated for 24 hr prior to treatment with 20 hr wetness period followed by 4 hr drying period measured after 4 weeks relative to control in presence of stylet oil; assay type: functional, organism-based
[15] = tested on: Diaporthe ampelina; test: Antifungal activity against Diaporthe ampelina infected grape plant assessed as decrease in lesions on leaf at 1.19 kg a.i./ha incubated for 48 hr prior to treatment with 24 hr wetness period followed by 24 hr of drying period measured after 4 weeks relative to control in presence of regulaid; assay type: functional, organism-based
[16] = tested on: Diaporthe ampelina; test: Antifungal activity against Diaporthe ampelina infected grape plant assessed as re-isolation of mycelium from infected vines at 1.19 kg a.i./ha treated for weeks in presence of regulaid followed by inoculation on medium measured after 72 hr (reference value: 62.5%); assay type: functional
[17] = tested on: Diaporthe ampelina; test: Antifungal activity against Diaporthe ampelina infected grape plant assessed as decrease in lesions on leaf at 2.6 kg/ha incubated for 24 hr prior to treatment with 20 hr wetness period followed by 4 hr drying period measured after 4 weeks relative to control in presence of regulaid; assay type: functional, organism-based
[18] = tested on: Diaporthe ampelina; test: Antifungal activity against Diaporthe ampelina infected grape plant assessed as disease severity at internodes at 1.19 kg a.i./ha incubated for 20 hr prior to treatment with 16 hr wetness period and 4 hr drying time measured after 4 weeks in presence of regulaid (reference value: 7.3%); assay type: functional
[19] = tested on: Diaporthe ampelina; test: Antifungal activity against Diaporthe ampelina infected grape plant assessed as re-isolation of mycelium from infected vines at 1.19 kg a.i./ha treated for weeks in presence of stylet oil followed by inoculation on medium measured after 72 hr (reference value: 62.5%); assay type: functional
[20] = tested on: Diaporthe ampelina; test: Antifungal activity against Diaporthe ampelina infected grape plant assessed as decrease in lesions on leaf at 1.19 kg a.i./ha incubated for 20 hr prior to treatment with 16 hr wetness period and 4 hr drying time measured after 4 weeks relative to control in presence of stylet oil; assay type: functional, organism-based
[21] = tested on: Diaporthe ampelina; test: Antifungal activity against Diaporthe ampelina infected grape plant assessed as disease severity at internodes at 1.19 kg a.i./ha treated 3 to 6 hr prior to inoculation followed by 24 hr wetness period measured after 4 weeks (reference value: 2.6%); assay type: functional
[22] = tested on: Diaporthe ampelina; test: Antifungal activity against Diaporthe ampelina infected grape plant assessed as decrease in lesions on leaf at 1.19 kg a.i./ha incubated for 24 hr prior to treatment with 20 hr wetness period followed by 4 hr drying period measured after 4 weeks relative to control in presence of regulaid; assay type: functional, organism-based
[23] = tested on: Diaporthe ampelina; test: Antifungal activity against Diaporthe ampelina infected grape plant assessed as disease severity at internodes at 2.6 kg/ha incubated for 24 hr prior to treatment with 20 hr wetness period followed by 4 hr drying period measured after 4 weeks in presence of regulaid (reference value: 3.2%); assay type: functional
[24] = tested on: Diaporthe ampelina; test: Antifungal activity against Diaporthe ampelina infected grape plant assessed as decrease in lesions on leaf at 1.19 kg a.i./ha treated 3 to 6 hr prior to inoculation followed by 24 hr wetness period measured after 4 weeks relative to control in presence of stylet oil; assay type: functional, organism-based
[25] = tested on: Diaporthe ampelina; test: Antifungal activity against Diaporthe ampelina infected grape plant assessed as decrease in lesions on leaf at 1.19 kg a.i./ha incubated for 48 hr prior to treatment with 24 hr wetness period followed by 24 hr of drying period measured after 4 weeks relative to control in presence of stylet oil; assay type: functional, organism-based
[26] = tested on: Diaporthe ampelina; test: Antifungal activity against Diaporthe ampelina infected grape plant assessed as decrease in lesions on leaf at 1.19 kg a.i./ha treated 3 to 6 hr prior to inoculation followed by 24 hr wetness period measured after 4 weeks relative to control; assay type: functional, organism-based
[27] = tested on: Diaporthe ampelina; test: Antifungal activity against Diaporthe ampelina infected grape plant assessed as decrease in lesions on leaf at 1.19 kg a.i./ha incubated for 24 hr prior to treatment with 20 hr wetness period followed by 4 hr drying period measured after 4 weeks relative to control in presence of stylet oil; assay type: functional, organism-based
[28] = tested on: Diaporthe ampelina; test: Antifungal activity against Diaporthe ampelina infected grape plant assessed as disease severity at internodes at 1.19 kg a.i./ha treated 3 to 6 hr prior to inoculation followed by 24 hr wetness period measured after 4 weeks in presence of regulaid (reference value: 2.9%); assay type: functional
[29] = tested on: Diaporthe ampelina; test: Antifungal activity against Diaporthe ampelina infected grape plant assessed as disease severity at internodes at 1.19 kg a.i./ha treated 3 to 6 hr prior to inoculation followed by 24 hr wetness period measured after 4 weeks in presence of stylet-oil(reference value: 2.9%); assay type: functional
[30] = tested on: Diaporthe ampelina; test: Antifungal activity against Diaporthe ampelina infected grape plant assessed as disease severity at internodes at 1.19 kg a.i./ha incubated for 24 hr prior to treatment with 20 hr wetness period followed by 4 hr drying period measured after 4 weeks in presence of stylet oil(reference value: 4.7%); assay type: functional
[31] = tested on: Diaporthe ampelina; test: Antifungal activity against Diaporthe ampelina infected grape plant assessed as decrease in lesions on leaf at 1.19 kg a.i./ha treated 3 to 6 hr prior to inoculation followed by 24 hr wetness period measured after 4 weeks relative to control in presence of regulaid; assay type: functional, organism-based
[32] = tested on: Diaporthe ampelina; test: Antifungal activity against Diaporthe ampelina infected grape plant assessed as decrease in lesions on leaf at 1.19 kg a.i./ha incubated for 20 hr prior to treatment with 16 hr wetness period and 4 hr drying time measured after 4 weeks relative to control in presence of regulaid; assay type: functional, organism-based
[33] = tested on: Diaporthe ampelina; test: Antifungal activity against Diaporthe ampelina infected grape plant assessed as disease severity at internodes at 1.19 kg a.i./ha incubated for 24 hr prior to treatment with 20 hr wetness period followed by 4 hr drying period measured after 4 weeks in presence of regulaid (reference value: 4.7%); assay type: functional
[34] = tested on: Diaporthe ampelina; test: as §1, with “1.19” for “0.12”; assay type: functional
[35] = tested on: Diaporthe ampelina; test: Antifungal activity against Diaporthe ampelina infected grape plant assessed as disease severity at internodes at 1.19 kg a.i./ha incubated for 20 hr prior to treatment with 16 hr wetness period and 4 hr drying time measured after 4 weeks in presence of stylet oil(reference value: 7.3%); assay type: functional
[36] = tested on: Diaporthe ampelina; test: Antifungal activity against Diaporthe ampelina infected grape plant assessed as disease severity at internodes at 2.6 kg/ha incubated for 24 hr prior to treatment with 20 hr wetness period followed by 4 hr drying period measured after 4 weeks in presence of stylet oil(reference value: 3.2%); assay type: functional
[37] = tested on: Diaporthe ampelina; test: as §1, with “1.19” for “0.12”, “stylet oil” for “regulaid”; assay type: functional

Structure (SMILES): CCCCC(C#N)(Cn1cncn1)c1ccc(Cl)cc1 (configuration not stated) [MYCLOBUTANIL]
- Activity [1]: inactive
- Activity [2]: 0.1%
- Activity [3]: 3.1%
- Activity [4]: inactive
- Activity [5]: 3.5%
- Activity [6]: 68.7%
- Activity [7]: 5.2%
- Activity [8]: inactive
- Activity [9]: 0.6%
- Activity [10]: inactive
- Activity [11]: inactive
- Activity [12]: 6.7%
- Activity [13]: inactive

Structure (SMILES): COC(=O)NC(=S)Nc1ccccc1NC(=S)NC(=O)OC [THIOPHANATE METHYL]
- Activity [14]: inactive
- Activity [15]: inactive
- Activity [16]: 37.1%
- Activity [17]: inactive
- Activity [18]: 4%
- Activity [19]: 41.1%
- Activity [20]: inactive
- Activity [21]: 0.1%
- Activity [22]: inactive
- Activity [23]: 0.7%
- Activity [24]: Active
- Activity [25]: inactive
- Activity [26]: Active
- Activity [27]: inactive
- Activity [28]: 1%
- Activity [29]: 2%
- Activity [30]: 0.7%
- Activity [31]: Active
- Activity [32]: inactive
- Activity [33]: 3.3%
- Activity [34]: 3.8%
- Activity [35]: 7.5%
- Activity [36]: 1.8%
- Activity [37]: 5.1%
